# Source: the OligoGym collection
# “And” between values parts separate entries of the source, which are not always exact repeats. Equal values may be shown once. HELM strings list units from the 5' end as sugar, base in round brackets, then linkage (d deoxyribose, r ribose, m 2'-O-methyl, p phosphodiester). Strings are as the collection lists them, not checked against the first reports. ss, as = sense and antisense strand; [una] = unlocked nucleic acid; [s4r] = 4'-thioribose
# Settings: siRNA
# Also: test system not given here.
row,Substance,target mRNA knockdown
1,RNA1{[s4r](C)p.[s4r](G)p.[s4r](U)p.[s4r](A)p.[s4r](C)p.[s4r](G)p.r(C)p.r(G)p.r(G)p.r(A)p.r(A)p.r(U)p.r(A)p.r(C)p.r(U)p.r(U)p.r(C)p.r(G)p.r(A)p.r(T)p.r(T)}|RNA2{r(U)p.r(C)p.r(G)p.r(A)p.r(A)p.r(G)p.r(U)p.r(A)p.r(U)p.r(U)p.r(C)p.r(C)p.r(G)p.r(C)p.r(G)p.r(U)p.r(A)p.r(C)p.r(G)p.r(T)p.r(T)}$$$RNA1{StrandType:ss}|RNA2{StrandType:as}$,94%
2,RNA1{[s4r](C)p.[s4r](G)p.[s4r](U)p.[s4r](A)p.r(C)p.r(G)p.r(C)p.r(G)p.r(G)p.r(A)p.r(A)p.r(U)p.r(A)p.r(C)p.r(U)p.[s4r](U)p.[s4r](C)p.[s4r](G)p.[s4r](A)p.r(T)p.r(T)}|RNA2{[s4r](U)p.[s4r](C)p.[s4r](G)p.[s4r](A)p.r(A)p.r(G)p.r(U)p.r(A)p.r(U)p.r(U)p.r(C)p.r(C)p.r(G)p.r(C)p.r(G)p.[s4r](U)p.[s4r](A)p.[s4r](C)p.[s4r](G)p.r(T)p.r(T)}$$$RNA1{StrandType:ss}|RNA2{StrandType:as}$,0%
3,RNA1{[s4r](C)p.[s4r](G)p.[s4r](U)p.[s4r](A)p.r(C)p.r(G)p.r(C)p.r(G)p.r(G)p.r(A)p.r(A)p.r(U)p.r(A)p.r(C)p.r(U)p.[s4r](U)p.[s4r](C)p.[s4r](G)p.[s4r](A)p.r(T)p.r(T)}|RNA2{[s4r](U)p.[s4r](C)p.r(G)p.r(A)p.r(A)p.r(G)p.r(U)p.r(A)p.r(U)p.r(U)p.r(C)p.r(C)p.r(G)p.r(C)p.r(G)p.r(U)p.r(A)p.[s4r](C)p.[s4r](G)p.r(T)p.r(T)}$$$RNA1{StrandType:ss}|RNA2{StrandType:as}$,87.7%
4,RNA1{[s4r](C)p.[s4r](G)p.[s4r](U)p.[s4r](A)p.r(C)p.r(G)p.r(C)p.r(G)p.r(G)p.r(A)p.r(A)p.r(U)p.r(A)p.r(C)p.r(U)p.[s4r](U)p.[s4r](C)p.[s4r](G)p.[s4r](A)p.r(T)p.r(T)}|RNA2{r(U)p.r(C)p.r(G)p.r(A)p.r(A)p.r(G)p.r(U)p.r(A)p.r(U)p.r(U)p.r(C)p.r(C)p.r(G)p.r(C)p.r(G)p.[s4r](U)p.[s4r](A)p.[s4r](C)p.[s4r](G)p.r(T)p.r(T)}$$$RNA1{StrandType:ss}|RNA2{StrandType:as}$,88.1%
5,RNA1{[s4r](C)p.[s4r](G)p.[s4r](U)p.[s4r](A)p.r(C)p.r(G)p.r(C)p.r(G)p.r(G)p.r(A)p.r(A)p.r(U)p.r(A)p.r(C)p.r(U)p.[s4r](U)p.[s4r](C)p.[s4r](G)p.[s4r](A)p.r(T)p.r(T)}|RNA2{r(U)p.r(C)p.r(G)p.r(A)p.r(A)p.r(G)p.r(U)p.r(A)p.r(U)p.r(U)p.r(C)p.r(C)p.r(G)p.r(C)p.r(G)p.r(U)p.r(A)p.[s4r](C)p.[s4r](G)p.r(T)p.r(T)}$$$RNA1{StrandType:ss}|RNA2{StrandType:as}$,92%
6,RNA1{[s4r](C)p.[s4r](G)p.[s4r](U)p.[s4r](A)p.r(C)p.r(G)p.r(C)p.r(G)p.r(G)p.r(A)p.r(A)p.r(U)p.r(A)p.r(C)p.r(U)p.[s4r](U)p.[s4r](C)p.[s4r](G)p.[s4r](A)p.r(T)p.r(T)}|RNA2{r(U)p.r(C)p.r(G)p.r(A)p.r(A)p.r(G)p.r(U)p.r(A)p.r(U)p.r(U)p.r(C)p.r(C)p.r(G)p.r(C)p.r(G)p.r(U)p.r(A)p.r(C)p.r(G)p.r(T)p.r(T)}$$$RNA1{StrandType:ss}|RNA2{StrandType:as}$,94.7%
7,RNA1{[s4r](C)p.[s4r](G)p.[s4r](U)p.[s4r](A)p.r(C)p.r(G)p.r(C)p.r(G)p.r(G)p.r(A)p.r(A)p.r(U)p.r(A)p.r(C)p.r(U)p.r(U)p.r(C)p.r(G)p.r(A)p.r(T)p.r(T)}|RNA2{[s4r](U)p.[s4r](C)p.r(G)p.r(A)p.r(A)p.r(G)p.r(U)p.r(A)p.r(U)p.r(U)p.r(C)p.r(C)p.r(G)p.r(C)p.r(G)p.r(U)p.r(A)p.[s4r](C)p.[s4r](G)p.r(T)p.r(T)}$$$RNA1{StrandType:ss}|RNA2{StrandType:as}$,85.4%
8,RNA1{[s4r](C)p.[s4r](G)p.[s4r](U)p.[s4r](A)p.r(C)p.r(G)p.r(C)p.r(G)p.r(G)p.r(A)p.r(A)p.r(U)p.r(A)p.r(C)p.r(U)p.r(U)p.r(C)p.r(G)p.r(A)p.r(T)p.r(T)}|RNA2{r(U)p.r(C)p.r(G)p.r(A)p.r(A)p.r(G)p.r(U)p.r(A)p.r(U)p.r(U)p.r(C)p.r(C)p.r(G)p.r(C)p.r(G)p.[s4r](U)p.[s4r](A)p.[s4r](C)p.[s4r](G)p.r(T)p.r(T)}$$$RNA1{StrandType:ss}|RNA2{StrandType:as}$,86.1%
9,RNA1{[s4r](C)p.[s4r](G)p.[s4r](U)p.[s4r](A)p.r(C)p.r(G)p.r(C)p.r(G)p.r(G)p.r(A)p.r(A)p.r(U)p.r(A)p.r(C)p.r(U)p.r(U)p.r(C)p.r(G)p.r(A)p.r(T)p.r(T)}|RNA2{r(U)p.r(C)p.r(G)p.r(A)p.r(A)p.r(G)p.r(U)p.r(A)p.r(U)p.r(U)p.r(C)p.r(C)p.r(G)p.r(C)p.r(G)p.r(U)p.r(A)p.r(C)p.r(G)p.r(T)p.r(T)}$$$RNA1{StrandType:ss}|RNA2{StrandType:as}$,94.2%
10,RNA1{[s4r](C)p.[s4r](G)p.r(U)p.r(A)p.r(C)p.r(G)p.r(C)p.r(G)p.r(G)p.r(A)p.r(A)p.r(U)p.r(A)p.r(C)p.r(U)p.r(U)p.r(C)p.[s4r](G)p.[s4r](A)p.r(T)p.r(T)}|RNA2{[s4r](U)p.[s4r](C)p.r(G)p.r(A)p.r(A)p.r(G)p.r(U)p.r(A)p.r(U)p.r(U)p.r(C)p.r(C)p.r(G)p.r(C)p.r(G)p.r(U)p.r(A)p.[s4r](C)p.[s4r](G)p.r(T)p.r(T)}$$$RNA1{StrandType:ss}|RNA2{StrandType:as}$,85.3%
11,RNA1{[s4r](C)p.[s4r](G)p.r(U)p.r(A)p.r(C)p.r(G)p.r(C)p.r(G)p.r(G)p.r(A)p.r(A)p.r(U)p.r(A)p.r(C)p.r(U)p.r(U)p.r(C)p.[s4r](G)p.[s4r](A)p.r(T)p.r(T)}|RNA2{r(U)p.r(C)p.r(G)p.r(A)p.r(A)p.r(G)p.r(U)p.r(A)p.r(U)p.r(U)p.r(C)p.r(C)p.r(G)p.r(C)p.r(G)p.r(U)p.r(A)p.[s4r](C)p.[s4r](G)p.r(T)p.r(T)}$$$RNA1{StrandType:ss}|RNA2{StrandType:as}$,92.1%
12,RNA1{[s4r](C)p.[s4r](G)p.r(U)p.r(A)p.r(C)p.r(G)p.r(C)p.r(G)p.r(G)p.r(A)p.r(A)p.r(U)p.r(A)p.r(C)p.r(U)p.r(U)p.r(C)p.[s4r](G)p.[s4r](A)p.r(T)p.r(T)}|RNA2{r(U)p.r(C)p.r(G)p.r(A)p.r(A)p.r(G)p.r(U)p.r(A)p.r(U)p.r(U)p.r(C)p.r(C)p.r(G)p.r(C)p.r(G)p.r(U)p.r(A)p.r(C)p.r(G)p.r(T)p.r(T)}$$$RNA1{StrandType:ss}|RNA2{StrandType:as}$,95.3%
13,RNA1{[s4r](C)p.[s4r](G)p.r(U)p.r(A)p.r(C)p.r(G)p.r(C)p.r(G)p.r(G)p.r(A)p.r(A)p.r(U)p.r(A)p.r(C)p.r(U)p.r(U)p.r(C)p.r(G)p.r(A)p.r(T)p.r(T)}|RNA2{[s4r](U)p.[s4r](C)p.r(G)p.r(A)p.r(A)p.r(G)p.r(U)p.r(A)p.r(U)p.r(U)p.r(C)p.r(C)p.r(G)p.r(C)p.r(G)p.r(U)p.r(A)p.[s4r](C)p.[s4r](G)p.r(T)p.r(T)}$$$RNA1{StrandType:ss}|RNA2{StrandType:as}$,90.4%
14,RNA1{[s4r](C)p.[s4r](G)p.r(U)p.r(A)p.r(C)p.r(G)p.r(C)p.r(G)p.r(G)p.r(A)p.r(A)p.r(U)p.r(A)p.r(C)p.r(U)p.r(U)p.r(C)p.r(G)p.r(A)p.r(T)p.r(T)}|RNA2{r(U)p.r(C)p.r(G)p.r(A)p.r(A)p.r(G)p.r(U)p.r(A)p.r(U)p.r(U)p.r(C)p.r(C)p.r(G)p.r(C)p.r(G)p.r(U)p.r(A)p.[s4r](C)p.[s4r](G)p.r(T)p.r(T)}$$$RNA1{StrandType:ss}|RNA2{StrandType:as}$,91.3%
15,RNA1{[s4r](C)p.[s4r](G)p.r(U)p.r(A)p.r(C)p.r(G)p.r(C)p.r(G)p.r(G)p.r(A)p.r(A)p.r(U)p.r(A)p.r(C)p.r(U)p.r(U)p.r(C)p.r(G)p.r(A)p.r(T)p.r(T)}|RNA2{r(U)p.r(C)p.r(G)p.r(A)p.r(A)p.r(G)p.r(U)p.r(A)p.r(U)p.r(U)p.r(C)p.r(C)p.r(G)p.r(C)p.r(G)p.r(U)p.r(A)p.r(C)p.r(G)p.r(T)p.r(T)}$$$RNA1{StrandType:ss}|RNA2{StrandType:as}$,95.5%
16,RNA1{[s4r](C)p.r(G)p.[s4r](U)p.r(A)p.[s4r](C)p.r(G)p.[s4r](C)p.r(G)p.r(G)p.r(A)p.r(A)p.[s4r](U)p.r(A)p.[s4r](C)p.[s4r](U)p.[s4r](U)p.[s4r](C)p.r(G)p.r(A)p.r(T)p.r(T)}|RNA2{r(U)p.r(C)p.r(G)p.r(A)p.r(A)p.r(G)p.r(U)p.r(A)p.r(U)p.r(U)p.r(C)p.r(C)p.r(G)p.r(C)p.r(G)p.r(U)p.r(A)p.r(C)p.r(G)p.r(T)p.r(T)}$$$RNA1{StrandType:ss}|RNA2{StrandType:as}$,92.9%
17,RNA1{[s4r](C)p.r(G)p.r(U)p.r(A)p.[s4r](C)p.r(G)p.[s4r](C)p.r(G)p.r(G)p.r(A)p.r(A)p.r(U)p.r(A)p.[s4r](C)p.r(U)p.r(U)p.[s4r](C)p.r(G)p.r(A)p.r(T)p.r(T)}|RNA2{r(U)p.r(C)p.r(G)p.r(A)p.r(A)p.r(G)p.r(U)p.r(A)p.r(U)p.r(U)p.r(C)p.r(C)p.r(G)p.r(C)p.r(G)p.r(U)p.r(A)p.r(C)p.r(G)p.r(T)p.r(T)}$$$RNA1{StrandType:ss}|RNA2{StrandType:as}$,93.6%
18,RNA1{[una](A)p.r(C)p.r(A)p.r(G)p.r(A)p.r(G)p.r(U)p.r(C)p.r(C)p.r(C)p.r(U)p.r(C)p.r(A)p.r(A)p.r(A)p.r(C)p.r(A)p.r(G)p.r(A)p.[una](U)p.[una](U)}|RNA2{r(U)p.r(C)p.r(U)p.r(G)p.r(U)p.r(U)p.r(U)p.r(G)p.r(A)p.r(G)p.r(G)p.r(G)p.r(A)p.r(C)p.r(U)p.r(C)p.r(U)p.r(G)p.r(U)p.[una](U)p.[una](U)}$$$RNA1{StrandType:ss}|RNA2{StrandType:as}$,94% and 92% and 91%
19,RNA1{[una](U)p.r(G)p.r(A)p.r(A)p.r(U)p.r(C)p.r(A)p.r(G)p.r(A)p.r(A)p.r(G)p.r(A)p.r(U)p.r(G)p.r(A)p.r(A)p.r(G)p.r(U)p.r(C)p.r(A)p.r(A)}|RNA2{[una](G)p.r(A)p.r(C)p.r(U)p.r(U)p.r(C)p.r(A)p.r(U)p.r(C)p.r(U)p.r(U)p.r(C)p.r(U)p.r(G)p.r(A)p.r(U)p.r(U)p.r(C)p.r(A)p.r(A)p.r(G)}$$$RNA1{StrandType:ss}|RNA2{StrandType:as}$,0%
